Like-named read-outs stand apart in the source and are kept apart here.

These results are taken from patent publication US10988542B2, “Chimeric antigen receptors with integrated controllable functions” (CELLECTIS, priority 2015, dated 2021).

In one assay the target is T1, FKBP-FRB* mcCAR (Homo sapiens, UniProt P62942).
T1 construct: expressed in transfected cells; host or cells: T cells, mRNA electroporation
Nature of the assay: Competition between AP21967 and tacrolimus, surface presentation of engineered CAR. The assay is classed as cell-based. Particulars: AP21967 10 nM fixed, tacrolimus 0-500 nM, 20 hours.

For the next assay, the target named is T2, FKBP-FRB* mcCAR CD19 (Homo sapiens, UniProt P62942).
T2 construct: expressed in transfected cells; host or cells: T cells, mRNA electroporation
Nature of the assay: AP21967 switch-on: surface detection and dose response, CD19 targeting engineered CAR (Fab'2 detection). It counts as cell-based.

Another assay relates to Daudi CD19 positive. Briefly: Flow cytometry-based cytotoxicity assay of FKBP-FRB* mcCAR CD19 T-cells with AP21967. It counts as cell-based. Conditions: for EC50: Homo sapiens, Daudi, dose response 0, 1, 5, 10, 33, 100 nM. On the procedure: The cytolytic activity of engineered T-cells endowed with the FKBP-FRB* mcCAR CD19 from example 2, was assessed using a flow cytometry-based cytotoxicity assay. In this assay target cells presenting the CAR target antigen (Daudi CD19 positive) are labelled with CellTrace™ CFSE or and control cells with CellTrace™ violet.
The whole cell population was recovered, washed in PBS and labeled with eFluor780 viability marker before being fixed by 2% PFA. Fixed cells were analyzed by flow cytometry to determine their viability. Flow cytometry and data analysis were performed as described in example 1.
The level of targeted cell killing also correlated with the level of CAR detection (FIG. 9).

The next assay deals with T3, FKBP-FRB* scCAR (Homo sapiens, UniProt P62942).
T3 construct: expressed in transfected cells
Nature of the assay: AP21967 switch-on scCAR surface detection (Fc-tagged recombinant CD123). It counts as cell-based. Particulars: FKBP-FRB* domains; FIG. 7. The text has this: The CAR extracellular domains (alpha chain) presented in example 2 were used as template to prepare plasmid DNA encoding single chain CARs (scCARs). The CD8 alpha transmembrane domain (SEQ ID NO: 32), the intracytoplasmic signalling region of the ζ-chain of the CD3-T cell receptor (SEQ ID NO: 28) and the signalling domains from co-stimulatory 4-1BB (CD137) (SEQ ID NO:31) were used to complete the CARs. scCARs were assemble by Golden Gate cloning using round of restriction and ligation, according to standard molecular biology procedures, leading to pCLS27572 (FKBP-FRB*) (SEQ ID NO:65), pCLS27603 (FKBP) (SEQ ID NO:66), pCLS27604 (FRB*) (SEQ ID NO:67). The respective amino acid sequences encoded by these constructs are shown in SEQ ID NOs: 68 to 70.
Primary labelling for the detection of the scCARs was performed with Fc-tagged recombinant CD123 (Lake Pharma) in PBS FBS2%, EDTA 2 mM, azide 0.1% for 20 min at 4° C. followed by a two washing steps with PBS FBS2% EDTA 2 mM azide 0.1%. […] Following the extracellular labelling, the cell viability was monitored using the efluor450 or efluor780 (ebioscience) in PBS for 20 min 4° C., followed by a washing step with PBS FBS2% EDTA 2 mM azide 0.1% and fixed in PFA 2%.

Another assay concerns MOLM13-Luc tumour cells. Briefly: Antitumor activity of inducible CD123 CAR+ T cells with AP21967 in NOG mice injected with MOLM13-Luc. It counts as in vivo. Particulars: switch-on mcCAR-CD123 T cells IV plus AP21967 3 mg/kg/inj IP twice daily; FIG. 11. On the procedure: The anti-tumor activity of human T-cells expressing a switch-on mcCAR-CD123 as described in Example 1, was assessed in NOG mice intravenously injected with MOLM13-Luc tumour cells.
To establish the MOLM13-Luc cell line, MOLM13 cells (DSMZ ACC 554) have been transduced with a lentivirus encoding the GFP and the firefly luciferase (amsbio LVP438-PBS). The GFP-positive cells have been selected with Neomycin (ref 10131-027, Gibco, Life Technologies, Saint-Aubin, France). MOLM13-Luc cells are grown in suspension at 37° C. in a humidified atmosphere (5% CO2, 95% air) into culture medium RPMI 1640 containing 2.05 mM L-glutamine (ref: BE12-702F, Lonza) supplemented with 15% fetal bovine serum (ref: 3302, Lonza, Verviers, Belgium), 100 U/mL Penicillin and 100 μg/mL Streptomycin (ref: DE17-602E, Lonza). The cells are counted in a hemocytometer and their viability is assessed by 0.25% trypan blue exclusion assay and are passed twice weekly (0.8 millions/mL) in fresh culture medium.
The day of injection to mice, frozen human T-cells transformed with the switch-on mcCAR-CD123 CAR are assessed to be within a range of 1-2.106 live cells per mL. […]
Mice were monitored daily with respect to their body weight measurements, clinical and mortality records, and treatment were recorded on Vivo Manager® database (Biosystemes, Dijon, France).

Assay [1] has as its system FKBP/FRB-mcCAR and FRB/FKBP-mcCAR constructs. Nature of the assay: Rapamycin switch-on: surface detection of mcCAR with FKBP and FRB in the α-chain (flow cytometry). The assay is classed as cell-based. Conditions: rapamycin 100 nM, 20 h vs no rapamycin. An excerpt:
All constructs originated from the pCLS24707 (SEQ ID NO: 38) which encode the α-chain (SEQ ID NO: 39), β-chain (SEQ ID NO: 40) and γ-chain (SEQ ID NO: 41) of the multichain CAR (mcCAR). The sequences coding for the FRB domain (SEQ ID NO: 2) and FKBP domain (SEQ ID NO: 1) were synthetized de novo (GeneCust). The scFV, hinge-transmembrane-intracytoplasmic alpha chain domain, the FRB and the FKBP were further amplified by PCR to generate golden gate assembly compatible fragments (SEQ ID NO: 42 to 45). In addition an FRB-FKBP and an FKBP-FRB fragment were generated (SEQ ID NO: 46 to 47) using a four-EAAAR-linker (SEQ ID NO: 19) or a −GS-4x-EAAAR-linker (SEQ ID NO: 20) and standard molecular biology procedures. […]
All individual chains were amplified by PCR using oligo pairs α-chain-F/α-chain-R, β-chain-F/β-chain-R and γ-chain-F/γ-chain-R (SEQ ID NO: 56 to 61) prior to mRNA synthesis. mRNA encoding the different α-chains, β-chain, γ-chain were in vitro transcribed from the PCR product and polyadenylated using the mMessage mMachine T7 Ultra kit (Life technologies) following the manufacturer's instructions. RNAs were purified with RNeasy columns (Qiagen), eluted in cytoporation medium T and quantified by measuring absorbance at 260 nm using a Nanodrop ND-1000 spectrophotometer. […]
A general note: Flow cytometry measures light scatter and fluorescence of single cells or particles in a stream.

T1 sequence (P62942 with tags, fused parts or gaps): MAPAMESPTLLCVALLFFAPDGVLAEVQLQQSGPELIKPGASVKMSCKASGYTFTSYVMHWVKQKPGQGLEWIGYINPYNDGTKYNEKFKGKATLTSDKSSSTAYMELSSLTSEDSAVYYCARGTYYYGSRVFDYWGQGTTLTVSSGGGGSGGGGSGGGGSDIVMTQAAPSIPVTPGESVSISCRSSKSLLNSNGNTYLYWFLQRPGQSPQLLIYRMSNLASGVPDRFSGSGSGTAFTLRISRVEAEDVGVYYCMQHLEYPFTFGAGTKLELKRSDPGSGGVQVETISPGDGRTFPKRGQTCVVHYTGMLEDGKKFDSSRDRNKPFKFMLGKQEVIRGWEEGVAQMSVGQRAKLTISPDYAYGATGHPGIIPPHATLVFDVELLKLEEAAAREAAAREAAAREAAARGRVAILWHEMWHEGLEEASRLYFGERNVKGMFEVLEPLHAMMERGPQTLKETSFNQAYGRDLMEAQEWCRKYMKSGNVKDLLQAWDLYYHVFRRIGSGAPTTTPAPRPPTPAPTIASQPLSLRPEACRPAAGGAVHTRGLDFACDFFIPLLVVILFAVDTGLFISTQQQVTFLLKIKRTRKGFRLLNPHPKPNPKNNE
T1 sequence (Q01362 with tags, fused parts or gaps partner limits assumed): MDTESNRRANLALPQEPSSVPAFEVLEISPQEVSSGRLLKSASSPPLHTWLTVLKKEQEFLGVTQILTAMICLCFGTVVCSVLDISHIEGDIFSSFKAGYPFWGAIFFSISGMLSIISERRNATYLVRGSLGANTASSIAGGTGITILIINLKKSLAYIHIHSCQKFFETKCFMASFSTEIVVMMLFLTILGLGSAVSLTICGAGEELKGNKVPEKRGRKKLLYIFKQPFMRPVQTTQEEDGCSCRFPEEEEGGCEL
T1 sequence (P30273 with tags, fused parts or gaps partner limits assumed): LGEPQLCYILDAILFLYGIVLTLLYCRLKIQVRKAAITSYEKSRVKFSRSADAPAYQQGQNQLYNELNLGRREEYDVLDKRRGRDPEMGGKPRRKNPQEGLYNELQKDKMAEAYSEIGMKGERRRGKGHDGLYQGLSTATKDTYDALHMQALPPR
T2 sequence (Q01362 with tags, fused parts or gaps partner limits assumed): as the sequence (Q01362 with tags, fused parts or gaps partner limits assumed) above
T2 sequence (P30273 with tags, fused parts or gaps partner limits assumed): as the sequence (P30273 with tags, fused parts or gaps partner limits assumed) above
T3 sequence (P62942 with tags, fused parts or gaps): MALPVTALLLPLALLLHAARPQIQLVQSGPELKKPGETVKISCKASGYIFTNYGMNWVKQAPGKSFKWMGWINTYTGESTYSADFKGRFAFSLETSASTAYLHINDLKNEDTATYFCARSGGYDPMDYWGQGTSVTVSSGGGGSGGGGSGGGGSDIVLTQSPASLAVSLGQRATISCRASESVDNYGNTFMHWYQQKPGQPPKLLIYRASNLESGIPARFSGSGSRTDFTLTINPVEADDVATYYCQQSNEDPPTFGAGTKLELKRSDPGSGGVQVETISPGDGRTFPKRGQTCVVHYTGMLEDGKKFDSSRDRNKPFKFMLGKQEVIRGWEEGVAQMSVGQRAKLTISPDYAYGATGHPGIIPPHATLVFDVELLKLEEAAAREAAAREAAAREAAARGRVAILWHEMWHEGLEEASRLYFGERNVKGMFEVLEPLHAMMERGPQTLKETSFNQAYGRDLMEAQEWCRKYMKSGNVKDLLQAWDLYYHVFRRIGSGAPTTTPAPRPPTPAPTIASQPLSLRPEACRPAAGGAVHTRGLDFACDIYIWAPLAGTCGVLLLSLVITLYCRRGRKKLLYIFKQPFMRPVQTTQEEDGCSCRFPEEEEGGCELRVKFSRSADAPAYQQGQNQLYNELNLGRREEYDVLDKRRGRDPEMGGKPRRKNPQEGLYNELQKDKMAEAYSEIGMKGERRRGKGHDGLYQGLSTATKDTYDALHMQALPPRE

Consider `C=CC[C@@H]1/C=C(\C)C[C@H](C)C[C@H](OC)[C@H]2O[C@@](O)(C(=O)C(=O)N3CCCC[C@H]3C(=O)O[C@H](/C(C)=C/[C@@H]3CC[C@@H](O)[C@H](OC)C3)[C@H](C)[C@@H](O)CC1=O)[C@H](C)C[C@@H]2OC` [tacrolimus], for which the “surface presentation/detection of the engineered CAR with increasing tacrolimus” value on FKBP-FRB* mcCAR is given as “decreased surface detection”; on FKBP-FRB* mcCAR (listed as Tacrolimus) it was “possibility to tune the surface presentation”.
As a reminder, the EC50 is the concentration that produces a half-maximal response. For `CO[C@H]1[C@@H](O)[C@H](C)C[C@H](C)/C=C/C=C/C=C(\C)[C@@H](c2c[nH]c3c(C)cccc23)C[C@@H]2CC[C@@H](C)[C@@](O)(O2)C(=O)C(=O)N2CCCC[C@H]2C(=O)O[C@H]([C@H](C)C[C@@H]2CC[C@@H](O)[C@H](OC)C2)C[C@H](O)[C@H](C)/C=C(\C)[C@H]1O` [AP21967], on FKBP-FRB* mcCAR CD19 (FKBP-FRB* domains in α-chain, FIG. 4), the “surface exposition of mcCAR in presence of AP21967” value was “improved surface exposition”. The “concentration of maximum signal induction” value on FKBP-FRB* mcCAR CD19 (dose response, surface detection) was 100 nM. The “level of target cell killing versus AP21967 dose” value in the assay with Daudi CD19 positive (0, 1, 5, 10, 33, 100 nM, FIG. 5B) was “correlated”. Besides, the “cytolytic activity of CAR T cells in presence of AP21967” value with Daudi CD19 positive (AP21967 100 nM vs ethanol, E/T 20:1, 5 h, FIG. 5A) is on record as “improved switched-on cytolytic activity”. In addition, the EC50 was around 10 nM in the assay with Daudi CD19 positive (FIG. 5B, read-out: EC50 of cytolytic capacity (approximate)) and 12.7 nM in the assay with Daudi CD19 positive (FIG. 5B, read-out: EC50 of cytolytic capacity (value in parentheses)). In addition, the “surface exposition of scCAR in presence of AP21967” value on FKBP-FRB* scCAR is given as “improved surface exposition”. The “survival of the mice” value in the assay with MOLM13-Luc tumour cells is “increased the survival”.
As for `CO[C@H]1C[C@@H]2CC[C@@H](C)[C@@](O)(O2)C(=O)C(=O)N2CCCC[C@H]2C(=O)O[C@H]([C@H](C)C[C@@H]2CC[C@@H](O)[C@H](OC)C2)CC(=O)[C@H](C)/C=C(\C)[C@@H](O)[C@@H](OC)C(=O)[C@H](C)C[C@H](C)/C=C/C=C/C=C/1C` [rapamycin], in assay [1], the “improvement of surface detection considering the MFI” value was “up to 15 fold” and the “improvement of surface detection considering the percentage of positive cell” value is on record as at most 3 fold.
